Assay results published in ChEMBL document CHEMBL1201862, “PubChem BioAssay data set” (2004).
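Interpolation was linear, between the two tested concentrations surrounding the appropriate level; five concentrations were tested over 48 hours in 96-well plates. GI50 = concentration required for 50% inhibition of growth.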 Active and inactive are the calls of the source. Cut-off read from the data, not from the text of the source: active = GI50 up to about 1.1 µM and inactive = higher.

Legend:
Experiment in all cases: inhibition of tumour cell growth, NCI panel, 48 h
OVCAR-3 = test system: OVCAR-3
HCC 2998 = test system: HCC 2998
SNB-19 = test system: SNB-19
HOP-92 = test system: HOP-92
SK-MEL-2 = test system: SK-MEL-2
PC-3 = test system: PC-3
UACC-62 = test system: UACC-62
MOLT-4 = test system: MOLT-4
MDA-MB-231 = test system: MDA-MB-231
NCI/ADR-RES = test system: NCI/ADR-RES
EKVX = test system: EKVX
HOP-62 = test system: HOP-62
U-251 = test system: U-251
HT-29 = test system: HT-29
Malme-3M = test system: Malme-3M
NCI-H226 = test system: NCI-H226
TK-10 = test system: TK-10
BT-549 = test system: BT-549
RPMI-8226 = test system: RPMI-8226

Measured: GI50

[O-][S+](CCCl)c1c2ccccc2nc2ccccc12 (stereo not drawn)
inactive: OVCAR-3 > 100 µM | HCC 2998 > 100 µM | SNB-19 > 100 µM | HOP-92 > 100 µM | SK-MEL-2 > 100 µM | PC-3 > 100 µM | UACC-62 > 100 µM | MOLT-4 37.2 µM | MDA-MB-231 70.6 µM | NCI/ADR-RES > 100 µM | EKVX > 100 µM | HOP-62 > 100 µM | U-251 > 100 µM | HT-29 53.6 µM | Malme-3M > 100 µM | NCI-H226 > 100 µM | TK-10 > 100 µM

CCC1OC(=O)CC(O)C(C)C(OC2OC(C)C(O)C(N(C)C)C2O)C(CC=O)CC(C)C(=O)/C=C/C2(C)OC2C1C (stereo not drawn)
inactive: OVCAR-3 23.3 µM | HCC 2998 15.9 µM | SNB-19 44.4 µM | SK-MEL-2 48.3 µM | PC-3 47.9 µM | UACC-62 19.8 µM | MOLT-4 14.1 µM | BT-549 37.3 µM | MDA-MB-231 24 µM | RPMI-8226 11.1 µM | EKVX 40.1 µM | HOP-62 33.4 µM | U-251 30.2 µM | HT-29 20.2 µM | Malme-3M 11.6 µM | NCI-H226 > 100 µM | TK-10 34.2 µM

CCOC(=O)Cc1c(C)c2ccc(OC(C)=O)c(OC(C)=O)c2oc1=O
inactive: OVCAR-3 20.1 µM | SNB-19 13.3 µM | HOP-92 17.5 µM | SK-MEL-2 49.5 µM | PC-3 23.3 µM | UACC-62 32.7 µM | MOLT-4 23.6 µM | MDA-MB-231 37.1 µM | NCI/ADR-RES 22 µM | RPMI-8226 18.3 µM | EKVX 23.1 µM | HOP-62 40.6 µM | U-251 23.1 µM | HT-29 29.6 µM | Malme-3M 12.3 µM | NCI-H226 32.7 µM | TK-10 20.9 µM

COC(=O)c1c[nH]c2nc(N3CCOCC3)nn2c1=O
inactive: OVCAR-3 > 100 µM | HCC 2998 > 100 µM | SNB-19 > 100 µM | HOP-92 > 100 µM | SK-MEL-2 > 100 µM | UACC-62 > 100 µM | MOLT-4 > 100 µM | RPMI-8226 > 100 µM | EKVX > 100 µM | HOP-62 > 100 µM | U-251 > 100 µM | HT-29 > 100 µM | Malme-3M > 100 µM | NCI-H226 > 100 µM | TK-10 > 100 µM

COc1cc(NC(C)=O)ccc1C(=O)NN1C(=O)C(Cl)C1c1ccco1 (stereo not drawn)
inactive: OVCAR-3 > 100 µM | SNB-19 > 100 µM | HOP-92 > 100 µM | SK-MEL-2 > 100 µM | PC-3 > 100 µM | UACC-62 > 100 µM | MOLT-4 31.9 µM | BT-549 > 100 µM | NCI/ADR-RES > 100 µM | RPMI-8226 > 100 µM | EKVX > 100 µM | HT-29 > 100 µM | Malme-3M > 100 µM | NCI-H226 44.7 µM

N#C/C(=C\c1cc(Br)c(O)c(Br)c1)c1ccccn1
inactive: OVCAR-3 49.3 µM | HCC 2998 42.9 µM | SNB-19 46.1 µM | HOP-92 14.5 µM | SK-MEL-2 47.9 µM | PC-3 29.1 µM | UACC-62 37.1 µM | MOLT-4 32.5 µM | BT-549 30.2 µM | NCI/ADR-RES 43 µM | RPMI-8226 73.5 µM | EKVX 26.7 µM | HOP-62 53.2 µM | U-251 22.9 µM | HT-29 59 µM | Malme-3M 23.6 µM | NCI-H226 30.4 µM | TK-10 80.2 µM

CN(C)CCCOC(=O)C(c1ccccc1)C1(O)CCSCC1 (stereo not drawn)
inactive: OVCAR-3 > 100 µM | HCC 2998 > 100 µM | SNB-19 26.8 µM | HOP-92 > 100 µM | SK-MEL-2 > 100 µM | PC-3 > 100 µM | UACC-62 > 100 µM | MOLT-4 > 100 µM | MDA-MB-231 > 100 µM | NCI/ADR-RES 10.2 µM | RPMI-8226 > 100 µM | EKVX > 100 µM | HOP-62 > 100 µM | U-251 > 100 µM | HT-29 > 100 µM | Malme-3M > 100 µM | NCI-H226 79.1 µM | TK-10 > 100 µM

CC(C)N(C(=O)C12C3C4C1C1C2C3C41I)C(C)C (stereo not drawn)
inactive: OVCAR-3 > 100 µM | HCC 2998 > 100 µM | SNB-19 > 100 µM | HOP-92 88.9 µM | UACC-62 > 100 µM | MOLT-4 > 100 µM | EKVX > 100 µM | HT-29 > 100 µM | Malme-3M > 100 µM | NCI-H226 > 100 µM | TK-10 > 100 µM

COc1cc(CC2CC(c3ccc4c(c3)OCO4)OC2=O)cc(OC)c1OC (stereo not drawn)
inactive: OVCAR-3 49.5 µM | HCC 2998 > 100 µM | SNB-19 > 100 µM | HOP-92 13.6 µM | PC-3 91.6 µM | UACC-62 52.5 µM | MOLT-4 83 µM | MDA-MB-231 52.1 µM | NCI/ADR-RES 83.2 µM | RPMI-8226 25.1 µM | EKVX 65.9 µM | HOP-62 > 100 µM | U-251 > 100 µM | HT-29 > 100 µM | Malme-3M 61.1 µM | NCI-H226 > 100 µM | TK-10 > 100 µM

N#C[C@H]1Nc2ccccc2[C@@H](O)C1O (stereo partly drawn)
inactive: OVCAR-3 > 100 µM | HCC 2998 > 100 µM | HOP-92 > 100 µM | SK-MEL-2 > 100 µM | PC-3 > 100 µM | UACC-62 > 100 µM | MOLT-4 > 100 µM | MDA-MB-231 > 100 µM | NCI/ADR-RES > 100 µM | RPMI-8226 > 100 µM | EKVX > 100 µM | HOP-62 > 100 µM | U-251 > 100 µM | HT-29 > 100 µM | Malme-3M > 100 µM | TK-10 > 100 µM

N#CC1C(=O)NC2=C(CCOc3c2ccc2ccccc32)C1c1ccc(F)cc1 (stereo not drawn)
inactive: OVCAR-3 21.1 µM | HCC 2998 23.9 µM | SNB-19 20 µM | HOP-92 7.46 µM | SK-MEL-2 29.8 µM | PC-3 19.3 µM | MOLT-4 37.6 µM | BT-549 60 µM | NCI/ADR-RES 14.9 µM | EKVX 36 µM | HOP-62 18.5 µM | U-251 12.3 µM | Malme-3M 27.8 µM | TK-10 23.4 µM

COC(=O)C(=CNC(N)=O)C(=O)OC
inactive: OVCAR-3 > 100 µM | SNB-19 > 100 µM | HOP-92 > 100 µM | SK-MEL-2 > 100 µM | PC-3 > 100 µM | UACC-62 > 100 µM | MOLT-4 > 100 µM | NCI/ADR-RES > 100 µM | RPMI-8226 > 100 µM | EKVX > 100 µM | HOP-62 > 100 µM | HT-29 > 100 µM | TK-10 > 100 µM

CCOP(=O)(/C=C/n1ccc(=O)[nH]c1=O)OCC
inactive: OVCAR-3 > 100 µM | SNB-19 > 100 µM | SK-MEL-2 > 100 µM | PC-3 > 100 µM | UACC-62 > 100 µM | MOLT-4 > 100 µM | BT-549 > 100 µM | MDA-MB-231 > 100 µM | NCI/ADR-RES > 100 µM | RPMI-8226 > 100 µM | EKVX > 100 µM | HOP-62 > 100 µM | U-251 > 100 µM | HT-29 > 100 µM | NCI-H226 > 100 µM | TK-10 > 100 µM
